Converted amounts (≈) assume the structure as drawn.
Columns and labels:
[1] = Binding affinity to full length human DLK (1 to 859 residues)/NFkappaB DNA binding domain (unknown origin) fusion protein transfected in HEK293 cells assessed as dissociation constant incubated for 1 hr by Kinomescan assay; assay type: cell-based
[2] = Metabolic stability in mouse liver microsomes assessed as intrinsic clearance at 1 uM in presence of NADPH regenerating system measured for 45 mins by LC-MS/MS analysis; assay type: ADME, Microsome; conditions: read-out: CLH
[3] = Metabolic stability in human liver microsomes assessed as intrinsic clearance at 1 uM in presence of NADPH regenerating system measured for 45 mins by LC-MS/MS analysis; assay type: ADME, Microsome; conditions: read-out: CLH
[4] = Ratio of unbound drug concentration in C57BL/6 mouse brain to plasma at 0.3 mg/kg, iv measured for 24 hrs by LC-MS/MS analysis; assay type: ADME, organism-based; conditions: brain and plasma, read-out: K(p,uu,brain)
[5] = Oral bioavailability in C57BL/6 mouse at 10 mg/kg administered via oral gavage and measured for 24 hrs by LC-MS/MS analysis; assay type: ADME, organism-based; conditions: C57BL/6, mouse, in vivo
[6] = Plasma clearance in C57BL/6 mouse at 0.3 mg/kg, iv administered via tail vein and measured for 24 hrs by LC-MS/MS analysis; assay type: ADME, organism-based
[7] = Volume of distribution at steady state in C57BL/6 mouse at 0.3 mg/kg, iv administered via tail vein and measured for 24 hrs by LC-MS/MS analysis; assay type: ADME, organism-based; conditions: in vivo, read-out: Vdss
[8] = Half life in C57BL/6 mouse at 0.3 mg/kg, iv administered via tail vein and measured for 24 hrs by LC-MS/MS analysis; assay type: ADME, organism-based; conditions: in vivo
[9] = Cmax in C57BL/6 mouse at 10 mg/kg administered via oral gavage and measured for 24 hrs by LC-MS/MS analysis; assay type: ADME, organism-based; design: dose 10 mg/kg, time 24 hrs, route po; conditions: in vivo
[10] = AUClast in C57BL/6 mouse at 10 mg/kg administered via oral gavage and measured for 24 hrs by LC-MS/MS analysis; assay type: ADME, organism-based; design: time 24 hrs, dose 10 mg/kg, route po; conditions: in vivo
[11] = Thermodynamic aqueous solubility of compound in FeSSIF at pH 5 incubated for 1 hr under shaking condition by LC-MS/MS analysis; assay type: physicochemical; conditions: read-out: Therm_solubility
[12] = Thermodynamic aqueous solubility of compound in FaSSIF at pH 6.5 incubated for 1 hr under shaking condition by LC-MS/MS analysis; assay type: physicochemical; conditions: read-out: Therm_solubility
[13] = Thermodynamic aqueous solubility of compound in FaSSGF at pH 1.6 incubated for 1 hr under shaking condition by LC-MS/MS analysis; assay type: physicochemical; conditions: read-out: Therm_solubility
[14] = Permeability in wild type MDCK cells across apical to basolateral side at 5 uM incubated for 90 mins by LC-MS/MS analysis; assay type: ADME, cell-based, Canis lupus familiaris; conditions: dog, read-out: permeability
[15] = Permeability in wild type MDCK cells across basolateral to apical side at 5 uM incubated for 90 mins by LC-MS/MS analysis; assay type: ADME, cell-based, Canis lupus familiaris; conditions: dog, read-out: permeability
Cytochrome P450 2D6 = Cytochrome P450 2D6 (Homo sapiens, UniProt P10635); experiment: Inhibition of CYP2D6 in human liver microsomes using bufuralol as substrate incubated for 10 mins in presence of NADPH by LC-MS/MS analysis; assay type: ADME, Microsome
Sequence of Cytochrome P450 2D6 (P10635 whole entry): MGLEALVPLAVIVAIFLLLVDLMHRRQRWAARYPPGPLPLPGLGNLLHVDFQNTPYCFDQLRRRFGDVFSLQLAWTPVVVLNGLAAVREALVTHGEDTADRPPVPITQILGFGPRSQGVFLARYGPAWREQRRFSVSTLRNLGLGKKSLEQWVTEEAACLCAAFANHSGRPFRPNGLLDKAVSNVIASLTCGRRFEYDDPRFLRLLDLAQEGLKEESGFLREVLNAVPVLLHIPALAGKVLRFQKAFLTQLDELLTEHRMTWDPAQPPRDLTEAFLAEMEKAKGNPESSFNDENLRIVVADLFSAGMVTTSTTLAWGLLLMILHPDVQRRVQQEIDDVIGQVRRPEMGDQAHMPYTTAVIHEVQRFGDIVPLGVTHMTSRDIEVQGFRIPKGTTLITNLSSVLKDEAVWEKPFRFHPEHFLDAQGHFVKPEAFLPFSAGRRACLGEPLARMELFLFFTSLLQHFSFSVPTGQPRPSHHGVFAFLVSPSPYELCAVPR

Cytochrome P450 3A4 = Cytochrome P450 3A4 (Homo sapiens, UniProt P08684); experiment: Inhibition of CYP3A4 in human liver microsomes using testosterone as substrate incubated for 5 mins in presence of NADPH by LC-MS/MS analysis; assay type: ADME, Microsome
Sequence of Cytochrome P450 3A4 (P08684 whole entry): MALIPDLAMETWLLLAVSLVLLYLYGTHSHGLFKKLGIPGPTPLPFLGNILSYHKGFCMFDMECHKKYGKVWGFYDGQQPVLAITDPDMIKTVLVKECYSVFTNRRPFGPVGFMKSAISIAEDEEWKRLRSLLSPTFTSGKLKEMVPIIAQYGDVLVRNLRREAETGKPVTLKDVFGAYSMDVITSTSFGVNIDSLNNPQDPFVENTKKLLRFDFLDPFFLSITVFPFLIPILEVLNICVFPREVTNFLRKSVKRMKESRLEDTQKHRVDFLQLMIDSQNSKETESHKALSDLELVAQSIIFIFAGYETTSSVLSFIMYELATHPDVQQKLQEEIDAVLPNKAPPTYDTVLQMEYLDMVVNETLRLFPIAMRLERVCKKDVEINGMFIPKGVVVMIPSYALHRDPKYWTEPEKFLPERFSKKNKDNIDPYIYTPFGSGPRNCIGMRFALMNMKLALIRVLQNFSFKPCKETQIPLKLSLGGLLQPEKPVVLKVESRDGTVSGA

Cytochrome P450 2C19 = Cytochrome P450 2C19 (Homo sapiens, UniProt P33261); experiment: Inhibition of CYP2C19 in human liver microsomes using S-mephenytoin as substrate incubated for 45 mins in presence of NADPH by LC-MS/MS analysis; assay type: ADME, Microsome
Sequence of Cytochrome P450 2C19 (P33261 whole entry): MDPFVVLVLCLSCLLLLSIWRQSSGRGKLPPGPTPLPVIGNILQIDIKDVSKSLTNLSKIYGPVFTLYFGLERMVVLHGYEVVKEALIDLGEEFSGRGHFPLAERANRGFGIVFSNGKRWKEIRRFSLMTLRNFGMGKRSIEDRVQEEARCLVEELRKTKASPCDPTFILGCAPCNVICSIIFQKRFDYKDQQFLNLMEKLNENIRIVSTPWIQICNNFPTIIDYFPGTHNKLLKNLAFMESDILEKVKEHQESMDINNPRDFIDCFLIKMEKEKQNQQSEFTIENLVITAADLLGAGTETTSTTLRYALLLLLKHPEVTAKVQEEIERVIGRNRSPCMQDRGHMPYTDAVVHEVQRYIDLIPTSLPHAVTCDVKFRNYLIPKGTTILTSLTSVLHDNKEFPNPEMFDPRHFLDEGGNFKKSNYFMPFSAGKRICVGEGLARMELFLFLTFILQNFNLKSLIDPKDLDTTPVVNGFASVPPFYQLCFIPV

[16] = Metabolic stability in monkey liver microsomes assessed as intrinsic clearance at 1 uM in presence of NADPH regenerating system measured for 45 mins by LC-MS/MS analysis; assay type: ADME, Macaca mulatta, Microsome; conditions: rhesus monkey, read-out: CLH
[17] = Metabolic stability in dog hepatocytes assessed as intrinsic clearance at 2 uM measured for 120 mins by LC-MS analysis; assay type: ADME, cell-based, Canis lupus familiaris, Hepatocyte; conditions: read-out: CLH
[18] = Metabolic stability in monkey hepatocytes assessed as intrinsic clearance at 2 uM measured for 120 mins by LC-MS analysis; assay type: ADME, cell-based, Macaca mulatta, Hepatocyte; conditions: rhesus monkey, read-out: CLH
[19] = Metabolic stability in human hepatocytes assessed as intrinsic clearance at 2 uM measured for 120 mins by LC-MS analysis; assay type: ADME, cell-based, Hepatocyte; conditions: read-out: CLH
[20] = Plasma protein binding in mouse at 5 uM incubated for 5 hrs by rapid equilibrium dialysis method; assay type: ADME, cell-free; conditions: read-out: PPB (converted)
[21] = Plasma protein binding in rat at 5 uM incubated for 5 hrs by rapid equilibrium dialysis method; assay type: ADME, cell-free; conditions: read-out: PPB (converted)
[22] = Plasma protein binding in dog at 5 uM incubated for 5 hrs by rapid equilibrium dialysis method; assay type: ADME, cell-free, Canis lupus familiaris; conditions: read-out: PPB (converted)
[23] = Plasma protein binding in human at 5 uM incubated for 5 hrs by rapid equilibrium dialysis method; assay type: ADME, cell-free; conditions: read-out: PPB
[24] = Protein binding in mouse brain homogenate incubated for 5 hrs by UPLC-MS/MS analysis; assay type: ADME, tissue-based; conditions: read-out: PB (converted)
[25] = Volume of distribution at steady state in Sprague-Dawley rat at 3 mg/kg, po or 1 mg/kg, iv measured for 24 hrs by LC-MS/MS analysis; assay type: ADME, organism-based; conditions: in vivo
[26] = Volume of distribution at steady state in cynomolgus monkey at 1 mg/kg, po or 0.3 mg/kg, iv measured for 24 hrs by LC-MS/MS analysis; assay type: ADME, organism-based, Macaca fascicularis; conditions: in vivo
[27] = Half life in Sprague-Dawley rat at 3 mg/kg, po or 1 mg/kg, iv measured for 24 hrs by LC-MS/MS analysis; assay type: ADME, organism-based; conditions: in vivo
[28] = Oral bioavailability in Sprague-Dawley rat at 3 mg/kg measured for 24 hrs by LC-MS/MS analysis; assay type: ADME, organism-based; conditions: in vivo
[29] = Cmax in Sprague-Dawley rat at 3 mg/kg, po or 1 mg/kg, iv measured for 24 hrs by LC-MS/MS analysis; assay type: ADME, organism-based; design: time 24 hrs, dose 3 mg/kg, route po; conditions: in vivo
[30] = Bioavailability in Beagle dog at 1 mg/kg, po or 0.3 mg/kg, iv measured for 24 hrs by LC-MS/MS analysis; assay type: ADME, organism-based, Canis lupus familiaris; conditions: in vivo
[31] = Cmax in Beagle dog at 1 mg/kg, po or 0.3 mg/kg, iv measured for 24 hrs by LC-MS/MS analysis; assay type: ADME, organism-based, Canis lupus familiaris; design: time 24 hrs, dose 1 mg/kg, route po; conditions: in vivo
[32] = Bioavailability in cynomolgus monkey at 1 mg/kg, po or 0.3 mg/kg, iv measured for 24 hrs by LC-MS/MS analysis; assay type: ADME, organism-based, Macaca fascicularis; conditions: in vivo
[33] = Cmax in cynomolgus monkey at 1 mg/kg, po or 0.3 mg/kg, iv measured for 24 hrs by LC-MS/MS analysis; assay type: ADME, organism-based, Macaca fascicularis; design: dose 1 mg/kg, time 24 hrs, route po; conditions: in vivo
[34] = AUClast in cynomolgus monkey at 1 mg/kg, po or 0.3 mg/kg, iv measured for 24 hrs by LC-MS/MS analysis; assay type: ADME, organism-based, Macaca fascicularis; design: dose 1 mg/kg, time 24 hrs, route po; conditions: in vivo
Mus musculus = experiment: Antiallodynic activity in po dosed C57BL/6 mouse model of cisplatin-induced mechanical allodynia assessed as increase in paw withdrawal threshold stimulated with cisplatin on day 1 to 5 and 10 to 15 followed by daily administration of compound starting from day 16 and measured for 43 days by von frey test; assay type: functional, organism-based; conditions: dose 3-30 mg/kg, time 28.0 day
[35] = Toxicity in monkey measured after 7 days by IND-enabling study; design: species or system Macaca mulatta; conditions: rhesus monkey, in vivo, 168 h; time 7 day

Structure (SMILES): Nc1ncc(-c2cn(C34CC(F)(C3)C4)c([C@@H](O)C(F)(F)F)n2)cc1OC(F)(F)F
- Kd [1]: 0.0013 µM
- CLint scaled at 1 µM [2]: 14 mL/min/kg
- CLint scaled at 1 µM [3]: 3 mL/min/kg
- Kp uu at 24 h [4]: 0.92
- bioavailability [5]: > 100%
- clearance [6]: 4.3 mL/min/kg
- Vd [7]: 4.5 L/kg
- half-life [8]: 13 h
- Cmax [9]: 6400 nM
- AUClast [10]: 111 µM·h
- solubility thermodynamic at 1 h [11]: 152 µM (≈ 64.8 µg/mL)
- solubility thermodynamic at 1 h [12]: 38 µM (≈ 16.2 µg/mL)
- solubility thermodynamic at 1 h [13]: 20600 µM (≈ 8790 µg/mL)
- Papp A→B at 1.5 h, 5 µM [14]: 38 ×10⁻⁶ cm/s
- Papp B→A at 1.5 h, 5 µM [15]: 31 ×10⁻⁶ cm/s
- IC50 (Cytochrome P450 2D6): > 10 µM
- IC50 (Cytochrome P450 3A4): > 10 µM
- IC50 (Cytochrome P450 2C19): > 10 µM
- CLint scaled at 1 µM [16]: 11 mL/min/kg
- CLint scaled at 2 µM [17]: 9.2 mL/min/kg
- CLint scaled at 2 µM [18]: 23 mL/min/kg
- CLint scaled at 2 µM [19]: 11 mL/min/kg
- fraction unbound at 5 h, 5 µM [20]: 0.075
- fraction unbound at 5 h, 5 µM [21]: 0.118
- fraction unbound at 5 h, 5 µM [22]: 0.053
- fraction unbound at 5 h, 5 µM [23]: 0.091
- fraction unbound at 5 h [24]: 0.039
- Vdss [25]: 5.6 L/kg
- Vdss [26]: 5.3 L/kg
- half-life [27]: 12 h
- bioavailability [28]: 95%
- Cmax [29]: 1300 nM
- bioavailability [30]: > 100%
- Cmax [31]: 1200 nM
- bioavailability [32]: > 100%
- Cmax [33]: 350 nM
- AUC(0-t) at 24 h [34]: 4.7 µM·h
- Activity (Mus musculus): Dose-Dependent Effect
- Activity [35]: Non-Toxic

Source: ChEMBL document CHEMBL5331140, “Discovery of IACS-52825, a Potent and Selective DLK Inhibitor for Treatment of Chemotherapy-Induced Peripheral Neuropathy” (J Med Chem, 2023)
